Read-outs that look alike come from different tables or passages of the source.
Experiments:
human CCR2B [1] = biological target: T1, human CCR2B (Homo sapiens (Human), UniProt P41597); experiment: Inhibition of native agonist (human MCP-1)-induced intracellular calcium release, calcium flux assay in CHO cells expressing human CCR2B and Gα16; format: cell-based; details: for IC50: read-out: hCCR2B IC50; for Kb: read-out: hCCR2B Kb
In short: (§1)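 Compound added to Calcium 4 dye-loaded adherent cells (dye loading 60 min, 37° C., HEPES pH 7.4 buffer with probenecid), then agonist: human MCP-1 at 2 nM final for hCCR2B cells, rat MCP-1 at 4 nM final for rCCR2 cells. FLIPR fluorescence change gave IC50. Kb=IC50/(1+[agonist]/EC50). Final DMSO 0.25%.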

human CCR2B [2] = biological target: T1, human CCR2B; experiment: Inhibition of [125I]-labeled MCP-1 binding to hCCR2B (radioligand binding in CHO cells); details: mean Ki; [125I]-MCP-1 50 pM; CHO cells expressing human CCR2B and Gα16
Description: CHO cells expressing human CCR2B were generated as follows. cDNA for human CCR2B (cloned from human blood) was cloned into plasmid pcDNA3.1 (from Invitrogen). The resulting plasmids were separately transfected into CHO cells expressing human Gα16 (from Molecular Devices). […] CHO cells expressing rat CCR2 were generated as follows. cDNA for rat CCR2 (cloned from rat macrophage) was cloned into plasmid pEF-flag (from Chinese Academy of Science). The resulting plasmids were transfected into CHO cells expressing human Gα16 (from […]).
Inhibition of [^125I]-Labeled MCP-1 Binding to hCCR2B
Radioligand binding assays were performed in CHO cells expressing human CCR2B and Gα16 coupling protein. All compounds were dissolved in DMSO and assays run at a final DMSO concentration of 0.5% (v/v). [^125I]-labeled human MCP-1 was purchased from PerkinElmer. Unlabelled human MCP-1 was purchased from PeproTech.
Compounds were serially diluted in DMSO before diluting into assay buffer (25 mM HEPES, pH 7.4, 5 mM MgCl2, 1 mM CaCl2, 0.5% BSA) with cryo preserved CHO cells expressing human CCR2B and the Gα16 coupling protein (30×10^3/well) and [^125I]-MCP-1 (50 pM). The reaction was incubated at room temperature for 90 minutes before transferring to GF/C filter membrane (PerkinElmer) pre-treated with 0.3% polyethyleneimine for 2 hours at 4° C. The filter membrane was washed six times with ice cold wash buffer (25 mM HEPES, pH 7.4, 5 mM MgCl2, 1 mM CaCl2, 500 mM NaCl, 0.01% (m/v) azide), dried, and sealed in a RLB sample bag (Agilent Technologies) before adding 5.0 mL Microscint 20 to each bag. Membrane was counted on Microbeta counter where background binding was determined by the presence of 100 nM MCP-1 and control total binding was determined by addition of DMSO in place of the test compound. The radioactivity values (cpm) were used to calculate the percent inhibition at a given compound concentration and the data fit to a sigmoidal curve in a semi-log plot to determine IC50 values. The corresponding Ki value is calculated as follows:
Ki=IC50/(1+[radioligand]/Kd), where [radioligand] is the concentration of the label and Kd (dissociation constant) is determined in saturation experiment with different concentrations of labeled MCP-1.

rat CCR2 = rat CCR2 (Rattus norvegicus (Rat), UniProt O55193); experiment: Inhibition of native agonist (rat MCP-1)-induced intracellular calcium release, calcium flux assay in CHO cells expressing rat CCR2 and Gα16; format: cell-based; details: read-out: rCCR2 Kb
In short: as §1

rat CCR2, sequence (O55193 whole entry): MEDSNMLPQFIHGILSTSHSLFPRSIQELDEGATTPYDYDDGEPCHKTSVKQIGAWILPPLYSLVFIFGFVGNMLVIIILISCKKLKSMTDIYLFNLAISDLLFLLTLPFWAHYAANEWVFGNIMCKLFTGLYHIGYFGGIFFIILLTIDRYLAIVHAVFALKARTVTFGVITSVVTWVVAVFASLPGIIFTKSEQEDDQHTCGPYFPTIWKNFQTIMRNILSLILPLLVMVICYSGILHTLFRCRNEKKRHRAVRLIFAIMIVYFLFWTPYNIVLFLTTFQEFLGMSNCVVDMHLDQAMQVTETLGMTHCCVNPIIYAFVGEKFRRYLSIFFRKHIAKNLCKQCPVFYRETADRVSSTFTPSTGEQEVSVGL
T1 sequence (P41597 other isoform, or with tags, fused parts or gaps): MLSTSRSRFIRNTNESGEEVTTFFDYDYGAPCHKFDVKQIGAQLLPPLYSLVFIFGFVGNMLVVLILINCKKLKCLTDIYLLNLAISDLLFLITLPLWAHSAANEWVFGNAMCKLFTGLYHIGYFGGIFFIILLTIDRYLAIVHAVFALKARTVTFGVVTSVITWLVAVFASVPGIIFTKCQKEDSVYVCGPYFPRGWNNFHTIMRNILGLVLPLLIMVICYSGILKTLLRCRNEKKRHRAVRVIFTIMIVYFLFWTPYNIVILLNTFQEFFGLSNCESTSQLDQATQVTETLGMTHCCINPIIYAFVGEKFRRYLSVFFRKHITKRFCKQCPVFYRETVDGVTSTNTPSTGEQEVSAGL

Row | SMILES | IC50 (human CCR2B [1]; calcium flux, human MCP-1 2 nM) | Kb (human CCR2B [1]) | Ki (human CCR2B [2]) | Kb (rat CCR2) | IC50 (human CCR2B [1])
1 | CO[C@@H]1COCC[C@@H]1N[C@@H]1C[C@H]2CCC[C@@]2(C(=O)N2C[C@@H]3C[C@H]2CN3c2cc(C(F)(F)F)ccc2C#N)C1 [Example 28, 1,5-anhydro-3-{[(2R,3aR,6aR)-3a-({(1S,4S)-5-[2-cyano-5-(trifluoromethyl)phenyl]-2,5-diazabicyclo[2.2.1]hept-2-yl}carbonyl)octahydropentalen-2-yl]amino}-2,3-dideoxy-4-O-methyl-D-erythro-pentitol] | 19.8 nM | 5 nM | 32 nM | 5 nM | 
2 | CO[C@@H]1COCC[C@@H]1N[C@@H]1C[C@H]2CCC[C@@]2(C(=O)N2C[C@@H]3C[C@H]2CN3c2cccc(OC(F)(F)F)c2)C1 [Example 29, 1,5-anhydro-2,3-dideoxy-4-O-methyl-3-{[(2R,3aR,6aR)-3a-({(1S,4S)-5-[3-(trifluoromethoxy)phenyl]-2,5-diazabicyclo[2.2.1]hept-2-yl}carbonyl)octahydropentalen-2-yl]amino}-D-erythro-pentitol] | 148 nM | 36 nM | 473 nM | 8 nM | 
3 | CO[C@@H]1COCC[C@@H]1N[C@@H]1C[C@H]2CCC[C@@]2(C(=O)N2C[C@@H]3C[C@H]2CN3c2nc(C(F)(F)F)cs2)C1 [Example 30, 1,5-anhydro-2,3-dideoxy-4-O-methyl-3-{[(2R,3aR,6aR)-3a-({(1S,4S)-5-[4-(trifluoromethyl)-1,3-thiazol-2-yl]-2,5-diazabicyclo[2.2.1]hept-2-yl}carbonyl)octahydropentalen-2-yl]amino}-D-erythro-pentitol] | 95.5 nM | 23 nM | 831 nM | 4 nM | 
4 | CO[C@@H]1COCC[C@@H]1N[C@@H]1C[C@H]2CCC[C@@]2(C(=O)N2C[C@@H]3C[C@H]2CN3c2ncc(C(F)(F)F)cc2Cl)C1 [Example 32, 1,5-anhydro-3-{[(2R,3aR,6aR)-3a-({(1S,4S)-5-[3-chloro-5-(trifluoromethyl)pyridin-2-yl]-2,5-diazabicyclo[2.2.1]hept-2-yl}carbonyl)octahydropentalen-2-yl]amino}-2,3-dideoxy-4-O-methyl-D-erythro-pentitol] | 314 nM | 77 nM | 1060 nM | 44 nM | 
5 | CO[C@@H]1COCC[C@@H]1N[C@@H]1C[C@H]2CCC[C@@]2(C(=O)N2C[C@@H]3C[C@H]2CN3c2cc(C#N)ccc2C(F)(F)F)C1 [Example 36, 1,5-anhydro-3-{[(2R,3aR,6aR)-3a-({(1S,4S)-5-[5-cyano-2-(trifluoromethyl)phenyl]-2,5-diazabicyclo[2.2.1]hept-2-yl}carbonyl)octahydropentalen-2-yl]amino}-2,3-dideoxy-4-O-methyl-D-erythro-pentitol] | 305 nM | 75 nM | 1060 nM | 24 nM | 
6 | CO[C@@H]1COCC[C@@H]1N[C@@H]1C[C@H]2CCC[C@@]2(C(=O)N2C[C@@H]3C[C@H]2CN3c2ccc(Cl)c(Cl)c2)C1 [Example 40, 1,5-anhydro-2,3-dideoxy-3-{[(2R,3aR,6aR)-3a-{[(1S,4S)-5-(3,4-dichlorophenyl)-2,5-diazabicyclo[2.2.1]hept-2-yl]carbonyl}octahydropentalen-2-yl]amino}-4-O-methyl-D-erythro-pentitol] | 41.5 nM | 10 nM | 38 nM | 3 nM | 
7 | CO[C@@H]1COCC[C@@H]1N[C@@H]1C[C@H]2CCC[C@@]2(C(=O)N2C[C@@H]3C[C@H]2CN3c2ccc(Cl)c(C#N)c2)C1 [Example 47, 1,5-anhydro-3-{[(2R,3aR,6aR)-3a-{[(1S,4S)-5-(4-chloro-3-cyanophenyl)-2,5-diazabicyclo[2.2.1]hept-2-yl]carbonyl}octahydropentalen-2-yl]amino}-2,3-dideoxy-4-O-methyl-D-erythro-pentitol] |  | 12 nM | 77 nM | 4 nM | 49.8 nM

From patent publication US8906911B2, “Chemokine receptor antagonists” (AbbVie Inc., priority 2012, dated 2014)
